Patent EP0245669B1, “Pharmaceutical preparation for preventing damage to living cells by free radicals, or for increasing the efficacy of organic sulphur compounds, and process for increasing the life span of isolated organs” (Medopharm Arzneimittelwerk Dr. Zillich GmbH & Co., priority 1986, dated 1987)

Legend:
[1] = Floersheim, Agents Actions 16, 580 (1985); cited from earlier work
weiblichen C3H Mäusen = assay: Radiation protection: survival of mice after gamma irradiation (cobalt-60) following i.p. pretreatment; type: in vivo, Mäuse; settings: for Ueberlebensrate nach Bestrahlung mit 9 Gy Anzahl / Ueberlebensrate nach Bestrahlung mit 10 Gy Anzahl / Ueberlebensrate nach Bestrahlung mit 11 Gy Anzahl / Ueberlebensrate nach Bestrahlung mit 12 Gy Anzahl / Ueberlebensrate nach Bestrahlung mit 13 Gy Anzahl: surviving/irradiated mice
Source text: In den nachfolgenden Beispielen wurde die synergistische Wirkung der durch die erfindungsgemässe Verwendung hergestellten pharmazeutischen Präparate mit organische Schwefelverbindungen enthaltenden Präparaten anhand des Strahlenschutzes getestet und es wurde auch die Strahlenschutzwirkung der Zinkionen enthaltenden Präparate mit bisher bekannten Strahlenschutzpräparaten an Mäusen getestet. Die Versuche wurden mit weiblichen C3H Mäusen (GL. Bomholtgard, Ry, Dänemark) durchgeführt, die 20 bis 22 g wogen. Die Mäuse wurden unter Bedingungen gehalten, wo sie so viel Standard-Nagetierfutter (Nafag Pellts) fressen und so viel Leitungswasser trinken können, wie sie wollten. Die Bestrahlung erfolgte mit Gammastrahlen aus einer Kobalt-60 Quelle. Es wurden unterschiedliche Bestrahlungen vorgenommen, und zwar mit 9 Gy, 10 Gy, 11 Gy, 12 Gy, 13 Gy und 14 Gy.
10 Minuten vor der Bestrahlung, 30 Minuten vor der Bestrahlung oder 120 Minuten vor der Bestrahlung wurde ein durch die erfindungsgemässe Verwendung hergestelltes synergistisch wirkendes pharmazeutisches Präparat, bzw. ein entsprechendes, Zinkionen enthaltendes Strahlenschutzpräparat oder ein aus dem Stand der Technik bekanntes Strahlenschutzpräparat zu Vergleichszwecken durch intraperitoneale Injektion verabreicht.
Bei der Gruppe der Mäuse zu Vergleichszwecken, die ohne Verabreichung eines Strahlenschutzpräparates bestrahlt wurden, erfolgte 10 Minuten vor der Bestrahlung die Verabreichung von destilliertem Wasser. Bei diesen unbehandelten Mäusen überlebten nur 50% der Tiere eine Bestrahlung von 8 Gy, d.h. der LD₅₀-Wert betrug 8 Gy.
Nach den Arbeitsweisen der vorangegangenen Beispiele 1 bis 4, wurden weitere Tests mit den genannten weiblichen Mäusen durchgeführt, und zwar unter Verwendung der angeführten Zinksalze. Die bei diesen Tests erzielten Ergebnisse sind in der nachfolgenden Tabelle I zusammengestellt. Für jede der angewandten Bestrahlungsstärken ist in der Rubrik "Anzahl" diejenige Anzahl der Mäuse angeführt, welche die Bestrahlung überlebten, geteilt durch die Gesamtzahl der Mäuse, welche bestrahlt wurden. Ein entsprechender Wert von 1/10 bedeutet also, dass von 10 bestrahlten Mäusen eine überlebt hatte. In der Spalte mit der Bezeichnung "Prozent", ist die Prozent-Ueberlebensrate angeführt. Bei einer überlebenden Maus pro 10 getesteten Mäusen beträgt diese Ueberlebensrate 10 %.
Zu Vergleichszwecken sind in der nachfolgenden Tabelle III die Ueberlebensraten von Mäusen zusammengestellt, die nach dem in Beispiel 5 beschriebenen Verfahren einer Vorbehandlung mit einem bekannten schwefelhaltigen Strahlenschutzmittel unterworfen worden waren. Orientierende Vorversuche hatten gezeigt, dass diese Strahlenschutzmittel bereits ihre Wirkung verloren hatten, wenn sie zwei Stunden vor der Einwirkung der Bestrahlung verabreicht worden waren. Die Bestrahlung wurde, wie aus der Tabelle ersichtlich ist, zwei Minuten nach der Verabreichung, in den meisten Fällen 10 Minuten nach der Verabreichung, aber auch 30 Minuten, bzw. 120 Minuten nach der Verabreichung durchgeführt. Die Werte deuten darauf hin, dass 30 Minuten nach der Verabreichung die Schutzwirkung schon wieder deutlich nachgelassen hat. Für jede Bestrahlungsstärke ist wiederum die Anzahl der Tiere angeführt, die nach 30 Tagen überlebt haben, geteilt durch die Gesamtzahl der Tiere, die behandelt und bestrahlt worden waren.
Anhand dieses Beispiels soll die synergistische Wirkung von Zinkionen und Schwefelverbindungen bezüglich eines Strahlenschutzes erläutert werden. Es wurde wieder in der gleichen Weise gearbeitet, wie in den vorangegangenen Beispielen 1 bis 3, bzw. 5, und es wurde auch die gleiche Art an weiblichen Mäusen getestet. Die Verabreichung der Zinkionen enthaltenden Lösung und der Lösung der Schwefelverbindung erfolgte entweder nacheinander oder gleichzeitig durch intraperitoneale Injektion.
In allen Fällen wurde die Ueberlebensrate 30 Tage nach der Einwirkung der Bestrahlung bestimmt.

[2] = 10 mg/kg i.p., 10 min before 9 Gy
[3] = 20 mg/kg i.p., 10 min before 9 Gy
[4] = 20 mg/kg i.p., 10 min before 10 Gy
[5] = 20 mg/kg i.p., 10 min before 11 Gy
[6] = 20 mg/kg i.p., 30 min before 9 Gy
[7] = 20 mg/kg i.p., 30 min before 10 Gy
[8] = 20 mg/kg i.p., 120 min before 9 Gy
[9] = 20 mg/kg i.p., 120 min before 10 Gy
[10] = 30 mg/kg i.p., 10 min before 9 Gy
[11] = 30 mg/kg i.p., 10 min before 10 Gy
[12] = 30 mg/kg i.p., 10 min before 11 Gy
[13] = 30 mg/kg i.p., 10 min before 12 Gy
[14] = 30 mg/kg i.p., 10 min before 13 Gy
[15] = 30 mg/kg i.p., 30 min before 9 Gy
[16] = 30 mg/kg i.p., 30 min before 10 Gy
[17] = 30 mg/kg i.p., 30 min before 11 Gy
[18] = 30 mg/kg i.p., 30 min before 12 Gy
[19] = 30 mg/kg i.p., 30 min before 13 Gy
[20] = 30 mg/kg i.p., 120 min before 9 Gy
[21] = 30 mg/kg i.p., 120 min before 10 Gy
[22] = 30 mg/kg i.p., 120 min before 11 Gy

What does the source list for “Zink-bis-(DL-hydrogenaspartat) [Zinkaspartat]”?
akute Toxizität von Aethanol [1]: vermindert; Ueberlebensrate nach Bestrahlung mit 9 Gy % (weiblichen C3H Mäusen; [2]): 10%; Ueberlebensrate nach Bestrahlung mit 9 Gy Anzahl (weiblichen C3H Mäusen; [2]): 1/10; Ueberlebensrate nach Bestrahlung mit 9 Gy % (weiblichen C3H Mäusen; [3]): 67%; Ueberlebensrate nach Bestrahlung mit 9 Gy Anzahl (weiblichen C3H Mäusen; [3]): 26/39; Ueberlebensrate nach Bestrahlung mit 10 Gy % (weiblichen C3H Mäusen; [4]): 29%; Ueberlebensrate nach Bestrahlung mit 10 Gy Anzahl (weiblichen C3H Mäusen; [4]): 13/45; Ueberlebensrate nach Bestrahlung mit 11 Gy % (weiblichen C3H Mäusen; [5]): 0%; Ueberlebensrate nach Bestrahlung mit 11 Gy Anzahl (weiblichen C3H Mäusen; [5]): 0/20; Ueberlebensrate nach Bestrahlung mit 9 Gy % (weiblichen C3H Mäusen; [6]): 60%; Ueberlebensrate nach Bestrahlung mit 9 Gy Anzahl (weiblichen C3H Mäusen; [6]): 6/10; Ueberlebensrate nach Bestrahlung mit 10 Gy % (weiblichen C3H Mäusen; [7]): 0%; Ueberlebensrate nach Bestrahlung mit 10 Gy Anzahl (weiblichen C3H Mäusen; [7]): 1/10; Ueberlebensrate nach Bestrahlung mit 9 Gy % (weiblichen C3H Mäusen; [8]): 50%; Ueberlebensrate nach Bestrahlung mit 9 Gy Anzahl (weiblichen C3H Mäusen; [8]): 5/10; Ueberlebensrate nach Bestrahlung mit 10 Gy % (weiblichen C3H Mäusen; [9]): 0%; Ueberlebensrate nach Bestrahlung mit 10 Gy Anzahl (weiblichen C3H Mäusen; [9]): 0/10; Ueberlebensrate nach Bestrahlung mit 9 Gy % (weiblichen C3H Mäusen; [10]): 88%; Ueberlebensrate nach Bestrahlung mit 9 Gy Anzahl (weiblichen C3H Mäusen; [10]): 43/49; Ueberlebensrate nach Bestrahlung mit 10 Gy % (weiblichen C3H Mäusen; [11]): 74^+ %; Ueberlebensrate nach Bestrahlung mit 10 Gy Anzahl (weiblichen C3H Mäusen; [11]): 43/58; Ueberlebensrate nach Bestrahlung mit 11 Gy % (weiblichen C3H Mäusen; [12]): 10%; Ueberlebensrate nach Bestrahlung mit 11 Gy Anzahl (weiblichen C3H Mäusen; [12]): 3/30; Ueberlebensrate nach Bestrahlung mit 12 Gy % (weiblichen C3H Mäusen; [13]): 3%; Ueberlebensrate nach Bestrahlung mit 12 Gy Anzahl (weiblichen C3H Mäusen; [13]): 1/30; Ueberlebensrate nach Bestrahlung mit 13 Gy % (weiblichen C3H Mäusen; [14]): 0%; Ueberlebensrate nach Bestrahlung mit 13 Gy Anzahl (weiblichen C3H Mäusen; [14]): 0/20; Ueberlebensrate nach Bestrahlung mit 9 Gy % (weiblichen C3H Mäusen; [15]): 80%; Ueberlebensrate nach Bestrahlung mit 9 Gy Anzahl (weiblichen C3H Mäusen; [15]): 8/10; Ueberlebensrate nach Bestrahlung mit 10 Gy % (weiblichen C3H Mäusen; [16]): 70%; Ueberlebensrate nach Bestrahlung mit 10 Gy Anzahl (weiblichen C3H Mäusen; [16]): 21/30; Ueberlebensrate nach Bestrahlung mit 11 Gy % (weiblichen C3H Mäusen; [17]): 60%; Ueberlebensrate nach Bestrahlung mit 11 Gy % (weiblichen C3H Mäusen; 30 mg/kg i.p., 30 min before 11 Gy, listed as Zink-aspartat): 60^+ %; Ueberlebensrate nach Bestrahlung mit 11 Gy Anzahl (weiblichen C3H Mäusen; [17]): 24/40; Ueberlebensrate nach Bestrahlung mit 12 Gy % (weiblichen C3H Mäusen; [18]): 57%; Ueberlebensrate nach Bestrahlung mit 12 Gy % (weiblichen C3H Mäusen; 30 mg/kg i.p., 30 min before 12 Gy, listed as Zink-aspartat): 57^+ %; Ueberlebensrate nach Bestrahlung mit 12 Gy Anzahl (weiblichen C3H Mäusen; [18]): 17/30; Ueberlebensrate nach Bestrahlung mit 13 Gy % (weiblichen C3H Mäusen; [19]): 17%; Ueberlebensrate nach Bestrahlung mit 13 Gy Anzahl (weiblichen C3H Mäusen; [19]): 5/30; Ueberlebensrate nach Bestrahlung mit 9 Gy % (weiblichen C3H Mäusen; [20]): 90^+ %; Ueberlebensrate nach Bestrahlung mit 9 Gy Anzahl (weiblichen C3H Mäusen; [20]): 9/10; Ueberlebensrate nach Bestrahlung mit 10 Gy % (weiblichen C3H Mäusen; [21]): 40%; Ueberlebensrate nach Bestrahlung mit 10 Gy Anzahl (weiblichen C3H Mäusen; [21]): 8/20; Ueberlebensrate nach Bestrahlung mit 11 Gy % (weiblichen C3H Mäusen; [22]): 53%; Ueberlebensrate nach Bestrahlung mit 11 Gy Anzahl (weiblichen C3H Mäusen; [22]): 16/30
